The text below walks through data of ChEMBL document CHEMBL4295262, “Evaluation of the utility of stem-cell derived cardiomyocytes for drug proarrhythmic potential” (2019).

Series [1] is described as follows: (§1) Electrical activity assay on cell lines treated with a given drug. DMSO was used as a vehicle and a control, unblinded dofetilide was used as a control. Format: ADME, cell-based. Details: FPDc: unit not given here. To be noted: human, ipsc-cm.
Series [2] is described as follows: as §1. To be noted: human, ipsc-cm.
The nature of series [3]: as §1. To be noted: human, ipsc-cm. The source holds these as a separate data set.
A short description of series [4]: as §1. To be noted: human, ipsc-cm. This is another data set of the same source.
The nature of series [5]: as §1. The format is cell-based. Details: APDc: unit not given here. The following applies: human, ipsc-cm.
Series [6] is described as follows: as §1. The following applies: human, ipsc-cm, 0.01 µM; concentration (um) 0.01 uM. Format: ADME, cell-based.
The nature of series [7]: as §1. To be noted: human, ipsc-cm, 0.001 µM; concentration (um) 0.001 uM. The format is ADME, cell-based.
Series [8] in a line: as §1. Format: ADME, cell-based. Details: FPDc: unit not given here. The following applies: human, ipsc-cm, 0.01 µM; concentration (um) 0.01 uM.
Setting [9] is: 3.169 µM, concentration (um) 3.16912 uM.
Where [10] appears, read: 10.01 µM, concentration (um) 10.0144 uM.
The mark [11] stands for this setting: 31.65 µM, concentration (um) 31.6456 uM.
Setting [12] is: 100 µM, concentration (um) 100 uM.
The mark [13] stands for this setting: 0.001 µM, concentration (um) 0.001 uM.
Where [14] appears, read: 0.0001 µM, concentration (um) 0.0001 uM.
[15] abbreviates: 0.01 µM, concentration (um) 0.01 uM.
Setting [16] is: 0.1 µM, concentration (um) 0.1 uM.
[17] abbreviates: 10 µM, concentration (um) 10 uM.

Take `COCCc1ccc(OCC(O)CNC(C)C)cc1` (stereo unspecified) [METOPROLOL]: the FPDc is listed as 0.03359 in series [1] (setting [9]); 0.03613 in series [1] (setting [10]); 0.03258 in series [1] (setting [11]); “More Than Half The Wells Had A Quiescence Event Or Fpdc Readings Of 0” in series [1] (setting [12]); 61.11 in series [2] (3.169 µM); 74.38 in series [2] (10.01 µM). Besides, the FPDc in series [2] (31.65 µM) is listed as 72.23; in series [2] (100 µM) it was 68; in series [3] (3.169 µM) it was 1 Values Out Of 1 Were Excluded Due To Quiescence Or 0 Fpdc; in series [3] (10.01 µM), 1 Values Out Of 1 Were Excluded Due To Quiescence Or 0 Fpdc; in series [3] (31.65 µM), 1 Values Out Of 1 Were Excluded Due To Quiescence Or 0 Fpdc; in series [3] (100 µM) it was 1 Values Out Of 1 Were Excluded Due To Quiescence Or 0 Fpdc. Also, the FPDc is on record as 54.76 in series [4] (3.169 µM), 55.07 in series [4] (10.01 µM), 53.88 in series [4] (31.65 µM) and 71.03 in series [4] (100 µM). The FPD measurement result in series [1] (setting [12]) was “More Than Half The Wells Had A Quiescence Event Or Fpdc Readings Of 0”; in series [3] (3.169 µM), 1 Values Out Of 1 Were Excluded Due To Quiescence Or 0 Fpdc; in series [3] (10.01 µM) it was 1 Values Out Of 1 Were Excluded Due To Quiescence Or 0 Fpdc; in series [3] (31.65 µM), 1 Values Out Of 1 Were Excluded Due To Quiescence Or 0 Fpdc; in series [3] (100 µM), 1 Values Out Of 1 Were Excluded Due To Quiescence Or 0 Fpdc; in series [4] (3.169 µM), 54.76 FPDc. Moreover, the FPD measurement in series [4] (10.01 µM) stood at 55.07 FPDc; in series [4] (31.65 µM), 53.88 FPDc; in series [4] (100 µM), 71.03 FPDc; in series [5] (setting [9]), 42.47 FPDc; in series [5] (setting [10]), 43.54 FPDc; in series [5] (setting [11]) it was 43.18 FPDc. In series [5] (setting [12]), this compound came in with an FPD measurement of 55.84 FPDc. Moreover, the APDc in series [5] (setting [9]) amounted to 42.47; in series [5] (setting [10]) it was 43.54; in series [5] (setting [11]), 43.18; in series [5] (setting [12]) it was 55.84.

For the compound `C[S+](C)[O-]` [DIMETHYL SULFOXIDE], the FPD measurement is 25 Values Out Of 25 Were Excluded Due To Quiescence Or 0 Apdc in series [6], 49.93 FPDc in series [7] and 55.35 FPDc in series [4] (0.001 µM). The FPDc in series [6] is reported as 20.63; in series [1] (setting [13]), 0.03393; in series [7] it was 72 Values Out Of 72 Were Excluded Due To Quiescence Or 0 Fpdc; in series [8] it was 50.28; in series [2] (1 µM) it was 70.37; in series [4] (0.001 µM) it was 55.35.

Take `CCCCCCCN(CC)CCCC(O)c1ccc(NS(C)(=O)=O)cc1` (stereo unspecified) [IBUTILIDE]: the FPDc was 0.0175 in series [1] (setting [14]); 0.01997 in series [1] (setting [13]); 0.0289 in series [1] (setting [15]); “More Than Half The Wells Had A Quiescence Event Or Fpdc Readings Of 0” in series [1] (setting [16]); 68.56 in series [2] (0.0001 µM); 62.64 in series [2] (0.001 µM). Further, the FPDc is 5 Values Out Of 5 Were Excluded Due To Quiescence Or 0 Fpdc in series [2] (0.01 µM); “More Than Half The Wells Had A Quiescence Event Or Fpdc Readings Of 0” in series [2] (0.1 µM); 1 Values Out Of 1 Were Excluded Due To Quiescence Or 0 Fpdc in series [3] (0.0001 µM); 1 Values Out Of 1 Were Excluded Due To Quiescence Or 0 Fpdc in series [3] (0.001 µM); 1 Values Out Of 1 Were Excluded Due To Quiescence Or 0 Fpdc in series [3] (0.01 µM); 1 Values Out Of 1 Were Excluded Due To Quiescence Or 0 Fpdc in series [3] (0.1 µM). In addition, the FPDc in series [4] (0.0001 µM) is 56.72; in series [4] (0.001 µM), 63.97; in series [4] (0.01 µM), “More Than Half The Wells Had A Quiescence Event Or Fpdc Readings Of 0”; in series [4] (0.1 µM) it was “More Than Half The Wells Had A Quiescence Event Or Fpdc Readings Of 0”. The FPD measurement result in series [1] (setting [16]) was “More Than Half The Wells Had A Quiescence Event Or Fpdc Readings Of 0”; in series [2] (0.0001 µM) it was 5 Values Out Of 5 Were Excluded Due To Quiescence Or 0 Apdc; in series [2] (0.001 µM), 5 Values Out Of 5 Were Excluded Due To Quiescence Or 0 Apdc; in series [2] (0.01 µM), 5 Values Out Of 5 Were Excluded Due To Quiescence Or 0 Apdc; in series [2] (0.1 µM) it was “More Than Half The Wells Had A Quiescence Event Or Apdc Readings Of 0”; in series [3] (0.0001 µM), 1 Values Out Of 1 Were Excluded Due To Quiescence Or 0 Fpdc. Also, the FPD measurement in series [3] (0.001 µM) was 1 Values Out Of 1 Were Excluded Due To Quiescence Or 0 Fpdc; in series [3] (0.01 µM) it was 1 Values Out Of 1 Were Excluded Due To Quiescence Or 0 Fpdc; in series [3] (0.1 µM), 1 Values Out Of 1 Were Excluded Due To Quiescence Or 0 Fpdc; in series [4] (0.0001 µM), 56.72 FPDc; in series [4] (0.001 µM) it was 63.97 FPDc; in series [4] (0.01 µM), “More Than Half The Wells Had A Quiescence Event Or Fpdc Readings Of 0”. In addition, the FPD measurement result is recorded as “More Than Half The Wells Had A Quiescence Event Or Fpdc Readings Of 0” in series [4] (0.1 µM), 43.63 FPDc in series [5] (setting [14]), 43.37 FPDc in series [5] (setting [13]) and 124.5 FPDc in series [5] (setting [15]). Besides, the APDc in series [5] (setting [14]) amounted to 43.63; in series [5] (setting [13]) it was 43.37; in series [5] (setting [15]), 124.5.

As for `CN1CCN(CCCCN2C(=O)CN(/N=C/c3ccc(-c4ccc(Cl)cc4)o3)C2=O)CC1` [AZIMILIDE], the FPDc in series [1] (setting [15]) is 0.03892; in series [1] (setting [16]) it was 0.04044; in series [1] (1 µM, concentration (um) 1 uM) it was 0.04651; in series [1] (setting [17]) it was 0.06031; in series [2] (0.01 µM), 73.84; in series [2] (0.1 µM) it was 69.12. Besides, the FPDc result in series [2] (1 µM) is on record as “More Than Half The Wells Had A Quiescence Event Or Fpdc Readings Of 0”; in series [2] (10 µM) it was “More Than Half The Wells Had A Quiescence Event Or Fpdc Readings Of 0”; in series [4] (0.01 µM), 55.32; in series [4] (0.1 µM), 56.52; in series [4] (1 µM) it was 77.06; in series [4] (10 µM), 5 Values Out Of 5 Were Excluded Due To Quiescence Or 0 Fpdc. In addition, the FPD measurement in series [4] (0.01 µM) is given as 55.32 FPDc; in series [4] (0.1 µM), 56.52 FPDc; in series [4] (1 µM), 77.06 FPDc; in series [4] (10 µM), 5 Values Out Of 5 Were Excluded Due To Quiescence Or 0 Fpdc; in series [5] (setting [15]), 52.41 FPDc; in series [5] (setting [16]), 47.87 FPDc. For the same compound, the FPD measurement turned out to be 63.58 FPDc in series [5] (1 µM, concentration (um) 1 uM) and 121.3 FPDc in series [5] (setting [17]). Also, the APDc in series [5] (setting [15]) came to 52.41; in series [5] (setting [16]), 47.87; in series [5] (1 µM, concentration (um) 1 uM), 63.58; in series [5] (setting [17]), 121.3.

Turning to `CC(C)COCC(CN(Cc1ccccc1)c1ccccc1)N1CCCC1` (stereo unspecified) [BEPRIDIL], the FPDc is reported as 0.04073 in series [1] (setting [15]); 0.0376 in series [1] (setting [16]); 0.04541 in series [1] (1 µM, concentration (um) 1 uM); “More Than Half The Wells Had A Quiescence Event Or Fpdc Readings Of 0” in series [1] (setting [17]); 70.33 in series [2] (0.01 µM); 77.75 in series [2] (0.1 µM). The FPDc is reported as 78.3 in series [2] (1 µM) and “More Than Half The Wells Had A Quiescence Event Or Fpdc Readings Of 0” in series [2] (10 µM). In addition, the FPD measurement result is recorded as “More Than Half The Wells Had A Quiescence Event Or Fpdc Readings Of 0” in series [1] (setting [17]); 5 Values Out Of 5 Were Excluded Due To Quiescence Or 0 Apdc in series [2] (1 µM); “More Than Half The Wells Had A Quiescence Event Or Apdc Readings Of 0” in series [2] (10 µM); 52.45 FPDc in series [5] (setting [15]); 43.71 FPDc in series [5] (setting [16]); 57.33 FPDc in series [5] (1 µM, concentration (um) 1 uM). Moreover, the APDc was 52.45 in series [5] (setting [15]); 43.71 in series [5] (setting [16]); 57.33 in series [5] (1 µM, concentration (um) 1 uM).

As for `COc1ccc([C@@H]2Sc3ccccc3N(CCN(C)C)C(=O)[C@@H]2OC(C)=O)cc1` [DILTIAZEM], the FPDc in series [1] (setting [15]) was 0.0252; in series [1] (setting [16]) it was “More Than Half The Wells Had A Quiescence Event Or Fpdc Readings Of 0”; in series [1] (1 µM, concentration (um) 1 uM) it was “More Than Half The Wells Had A Quiescence Event Or Fpdc Readings Of 0”; in series [1] (setting [17]) it was “More Than Half The Wells Had A Quiescence Event Or Fpdc Readings Of 0”; in series [4] (0.01 µM), 53.63; in series [4] (0.1 µM), 45.42. Also, the FPDc in series [4] (1 µM) is 28.2; in series [4] (10 µM), 13.87. The FPD measurement result in series [1] (setting [16]) is reported as “More Than Half The Wells Had A Quiescence Event Or Fpdc Readings Of 0”; in series [1] (1 µM, concentration (um) 1 uM), “More Than Half The Wells Had A Quiescence Event Or Fpdc Readings Of 0”; in series [1] (setting [17]), “More Than Half The Wells Had A Quiescence Event Or Fpdc Readings Of 0”; in series [4] (0.01 µM), 53.63 FPDc; in series [4] (0.1 µM) it was 45.42 FPDc; in series [4] (1 µM), 28.2 FPDc. Further, the FPD measurement stood at 13.87 FPDc in series [4] (10 µM); 56.41 FPDc in series [5] (setting [15]); 49.22 FPDc in series [5] (setting [16]); 40.25 FPDc in series [5] (1 µM, concentration (um) 1 uM); 32.58 FPDc in series [5] (setting [17]). In addition, the APDc in series [5] (setting [15]) stood at 56.41; in series [5] (setting [16]), 49.22; in series [5] (1 µM, concentration (um) 1 uM) it was 40.25; in series [5] (setting [17]), 32.58.
